Values quoted from earlier work as cited in patent US9526701B2, “Sustained drug release and improved product stability using non-covalent particle coating methods” (priority 2011, dated 2016).

Settings: for half life in the blood: following administration; for bioavailability: oral administration

Row | Structure (SMILES) | half life in the blood | bioavailability
1 | N[C@@H](Cc1cc(I)c(Oc2ccc(O)c(I)c2)c(I)c1)C(=O)O [Example T3, 3,5,3′-triiodo-L-thyronine] | 20 to 30 h | greater than 95%
2 | N[C@@H](Cc1cc(I)c(Oc2cc(I)c(O)c(I)c2)c(I)c1)C(=O)O [Example T4, 3,5,3′,5′-tetraiodo-L-thyronine] | greater than 7 days | 45-65%
